Measurements taken from PubChem BioAssay AID1259407 (Chemical Carcinogenesis Research Information System (CCRIS), 2018).
The source made the active and inactive calls. How the calls were made is not given here.

Test system: CCRIS mutagenicity, Ames/micronucleus/aberration tests
Test: CCRIS mutagenicity studies
Details: Test System: AMES SALMONELLA TYPHIMURIUM, Metabolic Activation: RAT, LIVER, Method: STANDARD PLATE

Measured: mutagenic call

O=c1[nH]c2c(c(=O)n1C1CCCCC1)CCC2
inactive: Strain/Indicator: TA97, S-9, AROCLOR 1254 inactive; negative | Strain/Indicator: TA97, S-9, AROCLOR 1254 AND NADPH inactive; negative | Strain/Indicator: TA98, S-9, AROCLOR 1254 inactive; negative | Strain/Indicator: TA98, S-9, AROCLOR 1254 AND NADPH inactive; negative | Strain/Indicator: TA100, S-9, AROCLOR 1254 inactive; negative | Strain/Indicator: TA100, S-9, AROCLOR 1254 AND NADPH inactive; negative | Strain/Indicator: TA102, S-9, AROCLOR 1254 inactive; negative | Strain/Indicator: TA102, S-9, AROCLOR 1254 AND NADPH inactive; negative
